Measured values taken from patent publication US20260008775A1, “AZOLE MODULATORS OF CHOLESTEROL BIOSYNTHESIS AND THEIR USE FOR PROMOTING REMYELINATION” (GENENTECH, INC., priority 2022, published 2026).

What was measured:
EpiSC-derived OPCs = assay: In vitro phenotypic screening of OPCs, MBP high-content imaging (percentage of oligodendrocytes); format: cell-based, mouse; conditions: for EC50: Mus musculus, 72 h, 3 days, MBP stain, dose-response 0.5 nM to 1000 nM, read-out: OPC EC50
Method: (§1) To assess effects of treatments on OPCs, all treatments were assayed in two or more independent platings of epiblast stem cell-derived OPCs (EpiSC). EpiSC-derived OPCs were obtained using in vitro differentiation protocols and culture conditions described previously (Najm et al, 2011, Nature Methods). OPCs were expanded and frozen down in aliquots. OPCs were thawed into growth conditions for at least one passage before use in further assays.
EpiSC-derived OPCs were grown and expanded in poly-L-ornithine (PO) and laminin-coated flasks in N2B27 media (DMEM/F12 (Gibco), N2-MAX (R&D Systems), B-27 (ThermoFisher), and GlutaMax (Gibco)) supplemented with FGF2 (10 μg/mL, R&D systems, 233-FB-025) and PDGF-AA (10 μg/mL, R&D systems, 233-AA-050) before harvesting for experiments. The cells were seeded onto poly-L-ornithine or poly-D-lysine coated CellCarrier Ultra plates (PerkinElmer) coated with laminin (Sigma, L2020) at a density of 150,000/cm^2 in N2B27 media without growth factors. For dose-response testing, a 1000× compound stock in dimethyl sulphoxide (DMSO) was added to assay plates, resulting in 8-point dose curves with final concentrations between 1000 nM and 0.5 nM. Positive controls and DMSO vehicle controls were included in each assay plate. Cells were incubated under standard conditions (37° C., 5% CO2) for 3 days and fixed with 4% paraformaldehyde (PFA) in phosphate buffered saline (PBS) for 20 min. Fixed plates were washed with PBS, permeabilized with 0.1% Triton X-100, and blocked with 10% donkey serum (v/v) in PBS for 40 min. Then, cells were labelled with MBP antibodies (Abcam, ab7349; 1:200) for 2 h at room temperature, washed with PBS, and stained with Alexa Fluor conjugated secondary antibodies (1:500) for 45 min. Nuclei were visualized by DAPI staining (Sigma; […]), followed by further PBS washes.
Cells and cell culture plates were imaged on the Operetta High Content Imaging and Analysis system (PerkinElmer). Analysis (PerkinElmer Harmony and Columbus software) began by identifying intact nuclei stained by DAPI. The peri-nuclear region of each cell was then cross-referenced with the mature myelin protein (MBP) stain to identify oligodendrocyte nuclei, and from this the percentage of oligodendrocytes was calculated. EC50 values were calculated using The Levenberg-Marquardt algorithm to fit a Hill equation to dose-response data (0.5 nM to 1000 nM).

[1] = system: zymostenol accumulation (EBP) in EpiSC-derived OPCs; assay: GC/MS-based sterol profiling, zymostenol accumulation in EpiSC-derived OPCs; format: cell-based, mouse; conditions: Mus musculus, 24 h, EpiSC-derived OPCs, 24 hr, 8 doses from 0.15 nM to 333 nM; read-out: Mouse Zymostenol GCMS EC50
Method: as §1
Sterols were monitored using a modified Folch wash protocol (Hubler et al, 2018, Nature). EpiSC-derived OPCs were plated at 100,000 cells per well in PO- and laminin-coated 96-well plates in N2B27 media without growth factors. After 24 hours, cells were rinsed with saline and plates were frozen. Cholesterol-d7 standard was then added to each well before drying under nitrogen stream and derivatization with 55 μl of bis(trimethylsilyl) trifluoroacetamide. After derivatization, 2 μl were analyzed by gas chromatography/mass spectrometry using an Agilent 5973 Network Mass Selective Detector equipped with a 6890 gas chromatograph system and a HP-5MS capillary column (30 m×0.25 mm×[…]). Samples were analyzed in full scan mode using electron impact ionization; ion fragment peaks were integrated to calculate sterol abundance, and quantitation was relative to cholesterol-d7. The following ion fragments were used to quantitate each metabolite: cholesterol-d7 (465), FF-Mas (482), cholesterol (368), zymostenol (458), zymosterol (456), Desmosterol (456, 343), 7-dehydrocholesterol (456, 325), lanosterol (393), lathosterol (458), 14-dehydrozymostenol (456, 351). […] All standards were obtained from Avanti Polar Lipids unless otherwise indicated. Calibration curves were generated by injecting varying concentrations of sterol standards and maintaining a fixed amount of cholesterol-D7. For normalized zymostenol accumulation results, the total amount of zymostenol measured after drug treatment was divided by the total amount of zymostenol accumulated after 24 hr treatment with 100 nM positive control reference.

[2] = biological target: human emopamil binding protein and human 7-dehydrocholesterol reductase (hEBP-DHCR7) (Homo sapiens (Human), UniProt Q15125); assay: hEBP-DHCR7 radioligand binding assay (filter binding, membranes of co-expressing HEK293 cells); conditions: competition with [3H] radioligand, 8 doses 0.06 to 5000 nM, Ki calculated from IC50
Method: Membrane Preparation: human emopamil binding protein and human 7-dehydrocholesterol reductase co-expressing cells were generated by transient transfecting host human embryonic kidney (HEK) 293 cells with 2 DNA constructs containing each protein's coding sequence. Cells were suspension cultured at 37° C. with 5% CO2 in […] 293 Expression Medium (Thermofisher). Whole cell membrane was prepared by harvesting the cell pellet, adding cold membrane buffer (50 mM Tris, pH7.5, 1× Roche COMPLETE EDTA-free protease inhibitor cocktail) 10 times volume of the cell pellets weight, lysing cell pellet on ice by using Dounce homogenizer, spinning at 200 g 4° C. for 15 min, collecting supernatant and spinning again at 25000 g 4° C. for 50 min, transferring pellet to Dounce homogenizer, re-suspending pellet by homogenizing in membrane buffer on ice to reach ˜25 mg/mL, then keeping whole cell membrane aliquots at −80° C.
Compounds were prepared in a 96-well U bottom plate (Corning Cat #7007) using an Echo550 machine and 10 mM compound DMSO stock solution, followed by an 8-dose 5-fold serial dilutions protocol with final testing compound concentration ranging from 0.06 to 5000 nM, with DMSO back fill to 100 nL/well and n=2. […] The UniFilter-96 GF/B plates (PerkinElmer Cat #6005177) were pre-treated by adding 50 μl/well of 0.3% (v/v) Polyethylenimine (PEI) (branched, Sigma Cat #408727) to UniFilter-96 GF/B plates. The plates were sealed and incubated at 4° C. for 3 hrs. Then, the plates were washed with ice-cold assay buffer 3 times. The radioligand binding assay was prepared by adding assay buffer diluted hEBP-DHCR7 membrane at 66.7 µg/ml×150 μl/well into the 96-well compound plate to reach 10 μg membrane per well. Then, the assay buffer diluted [3H]—(S)-6-(2-Methyl-3-(6-(trifluoromethyl)pyridin-3-yl)propyl)-2-thia-6-azaspiro[3.4]octane 2,2-dioxide (Moravek, Cat #MT-1003106) was added at 25 nM×50 μl/well. Following this, the plate was centrifuged at 1000 rpm for 30 secs. The plate was then sealed and agitated at 600 rpm at 22° C. for 5 min, and then incubated at 22° C. for 3 hrs. The incubation was stopped by transferring the binding solution to the pre-treated UniFilter-96 GF/B plate, vacuum filtrated, and then washed four times with ice-cold assay buffer. Following this, the plates were dried at 37° C. for 45 min. The plates were then sealed at the bottom. 40 µl/well of scintillation cocktail was added to the plates. A MicroBeta2 microplate counter was then used to read the plate and analyze the data. For reference and test compounds, the results are expressed as % Inhibition, using the normalization equation: N=100−100×(U−C2)/(C1−C2), where U is the unknown value, C1 is the average of high controls, and C2 is the average value of low controls.

Sequence of human emopamil binding protein and human 7-dehydrocholesterol reductase (hEBP-DHCR7) (Q15125 whole entry): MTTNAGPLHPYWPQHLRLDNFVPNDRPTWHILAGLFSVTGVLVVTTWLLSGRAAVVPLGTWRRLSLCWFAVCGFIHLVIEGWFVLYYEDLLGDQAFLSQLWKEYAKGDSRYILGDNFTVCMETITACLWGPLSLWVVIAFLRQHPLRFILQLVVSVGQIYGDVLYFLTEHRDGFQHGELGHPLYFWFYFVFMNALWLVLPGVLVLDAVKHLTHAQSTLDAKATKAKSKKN

Row | SMILES | EC50 (EpiSC-derived OPCs) [nM] | EC50 [1] [nM] | Ki [2] [nM] | fold decrease in activity in the OPC assay (EpiSC-derived OPCs; as compared to compound 171) [fold]
1 | CC(C)n1nc(-c2cccc(C(F)(F)F)n2)nc1[C@@H]1CCC(N2CCOCC2)C1 (stereo in doubt) [25*, 4-((1R,3R)-3-(1-isopropyl-3-(6-(trifluoromethyl)pyridin-2-yl)-1H-1,2,4-triazol-5-yl)cyclopentyl)morpholine] | 65.5 | 234 | – | –
2 | CC(C)n1nc(-c2cccc(C(F)(F)F)c2)nc1[C@H]1[C@@H]2C[C@@H](N3CCOCC3)C[C@@H]21 [20*, 4-((1R,3s,5S,6r)-6-(1-isopropyl-3-(3-(trifluoromethyl)phenyl)-1H-1,2,4-triazol-5-yl)bicyclo[3.1.0]hexan-3-yl)morpholine] | 232 | 64 | – | –
3 | CC(C)n1nc(-c2cncc(C(F)(F)F)c2)cc1[C@H]1[C@@H]2C[C@@H](N3CCOCC3)C[C@@H]21 [Cmpd 202] | 723 | 236 | – | –
4 | CC(C)n1nc(-c2cccc(C(F)(F)F)c2)nc1[C@H]1[C@@H]2C[C@H](N3CCCOCC3)C[C@@H]21 [Compound 13, 4-((1R,3r,5S,6r)-6-(1-isopropyl-3-(3-(trifluoromethyl)phenyl)-1H-1,2,4-triazol-5-yl)bicyclo[3.1.0]hexan-3-yl)-1,4-oxazepane] | 3.18 | 1.48 | – | –
5 | CC[C@@H]1CN([C@@H]2CC[C@H](c3nc(-c4cnc(C(F)(F)F)c(F)c4)nn3C(C)C)C2)CCO1 [Compound 146, (R)-2-Ethyl-4-((1R,3S)-3-(3-(5-fluoro-6-(trifluoromethyl)pyridin-3-yl)-1-isopropyl-1H-1,2,4-triazol-5-yl)cyclopentyl)morpholine] | – | 0.94 | 11.3 | –
6 | CC[C@H]1CN([C@@H]2CC[C@H](c3nc(-c4cnc(C(F)(F)F)c(F)c4)nn3C(C)C)C2)CCO1 [Compound 147, (S)-2-Ethyl-4-((1R,3S)-3-(3-(5-fluoro-6-(trifluoromethyl)pyridin-3-yl)-1-isopropyl-1H-1,2,4-triazol-5-yl)cyclopentyl)morpholine] | – | 14.5 | 1740 | –
7 | CC(C)n1nc(-c2cnc(C(F)(F)F)nc2)nc1[C@@H]1CC[C@H](N2CCO[C@H](C)C2)C1 [Compound 148, (R)-4-((1S,3R)-3-(1-Isopropyl-3-(2-(trifluoromethyl)pyrimidin-5-yl)-1H-1,2,4-triazol-5-yl)cyclopentyl)-2-methylmorpholine] | – | 13.4 | 22.2 | –
8 | CC(C)n1nc(-c2cnc(C(F)(F)F)nc2)nc1[C@@H]1CC[C@@H](N2CCO[C@H](C)C2)C1 [Compound 149, (R)-4-((1R,3R)-3-(1-Isopropyl-3-(2-(trifluoromethyl)pyrimidin-5-yl)-1H-1,2,4-triazol-5-yl)cyclopentyl)-2-methylmorpholine] | – | 129 | 68.3 | –
9 | CC(C)n1nc(-c2cnc(C(F)(F)F)nc2)nc1[C@@H]1CC[C@H](N2CCO[C@@H](C)C2)C1 [Compound 150, (S)-4-((1S,3R)-3-(1-Isopropyl-3-(2-(trifluoromethyl)pyrimidin-5-yl)-1H-1,2,4-triazol-5-yl)cyclopentyl)-2-methylmorpholine] | – | 946 | 3540 | –
10 | CC(C)n1nc(-c2cnc(C(F)(F)F)nc2)nc1[C@@H]1CC[C@@H](N2CCO[C@@H](C)C2)C1 [Compound 151, (S)-4-((1R,3R)-3-(1-Isopropyl-3-(2-(trifluoromethyl)pyrimidin-5-yl)-1H-1,2,4-triazol-5-yl)cyclopentyl)-2-methylmorpholine] | – | 129 | 505 | –
11 | CC[C@@H]1CN([C@@H]2CC[C@@H](c3nc(-c4cnc(C(F)(F)F)nc4)nn3C(C)C)C2)CCO1 [Compound 153, (R)-2-Ethyl-4-((1R,3R)-3-(1-isopropyl-3-(2-(trifluoromethyl)pyrimidin-5-yl)-1H-1,2,4-triazol-5-yl)cyclopentyl) morpholine] | – | 13.4 | 58.2 | –
12 | CC[C@H]1CN([C@H]2CC[C@@H](c3nc(-c4cnc(C(F)(F)F)nc4)nn3C(C)C)C2)CCO1 [Compound 154, (S)-2-Ethyl-4-((1S,3R)-3-(1-isopropyl-3-(2-(trifluoromethyl)pyrimidin-5-yl)-1H-1,2,4-triazol-5-yl)cyclopentyl)morpholine] | – | 221 | 465 | –
13 | CC[C@H]1CN([C@@H]2CC[C@@H](c3nc(-c4cnc(C(F)(F)F)nc4)nn3C(C)C)C2)CCO1 [Compound 155, (S)-2-Ethyl-4-((1R,3R)-3-(1-isopropyl-3-(2-(trifluoromethyl)pyrimidin-5-yl)-1H-1,2,4-triazol-5-yl)cyclopentyl) morpholine] | – | 305 | 465 | –
14 | CC[C@@H]1CN([C@@H]2CC[C@H](c3nc(-c4ccc(C(F)F)nc4)nn3C(C)C)C2)CCO1 [Compound 156, (R)-4-((1R,3S)-3-(3-(6-(Difluoromethyl)pyridin-3-yl)-1-isopropyl-1H-1,2,4-triazol-5-yl)cyclopentyl)-2-ethylmorpholine] | – | 4.07 | 43.8 | –
15 | CC(C)n1nc(-c2cnc(N)c(C(F)(F)F)c2)cc1[C@H]1[C@@H]2C[C@H](N3CCOCC3)C[C@@H]21 [Compound B, reference compound] | 692 | – | – | 41.7
